According to patent US11987642B2, “Bispecific HER2 and CD3 binding molecules” (MEMORIAL SLOAN KETTERING CANCER CENTER, priority 2014, dated 2024):

How the values were obtained:
HER2-positive cells = experiment: Blocking of HER2-BsAb redirected T cell cytotoxicity; type: cell-based, human; settings: pre-incubation with blocking antibody
HCC1954 xenografts = experiment: Subcutaneous HCC1954 xenograft with intravenous PBMC; type: in vivo, DKO mice
Description: Subcutaneous xenografts were created with 5×10^6 cells suspended in Matrigel (Corning Corp, Tewksbury MA) and implanted in the flank of DKO mice. Effector peripheral blood mononuclear cell (PBMC) cells were purified from buffy coats purchased from the New York Blood Center. Prior to every experimental procedure, PBMCs were analyzed for their percentage of CD3, CD4, CD8 and CD56 cells to ensure consistency. […] Tumor size was measured using (1) hand-held TM900 scanner (Pieira, Brussels, BE); (2) Calipers; or (3) bioluminescence. Bioluminescence imaging was conducted using the Xenogen In Vivo Imaging System (IVIS) 200 (Caliper LifeSciences). Briefly, mice were injected intravenously with 0.1 mL solution of D-luciferin (Gold Biotechnology; 30 mg/mL stock in PBS). Images were collected 1 to 2 minutes after injection using the following parameters: a 10- to 60-second exposure time, medium binning, and an 8 f/stop. Bioluminescence image analysis was performed using Living Image 2.6 (Caliper LifeSciences).
In two other separate experiments, subcutaneous HER2-positive breast carcinoma cell line HCC1954 was mixed with subcutaneous PBMCs.

SCCHN cell line PCI-30 = experiment: Proliferation assay (WST-8), PCI-30; type: cell-based, human
Description: (§1) Cell proliferation was determined using an ELISA plate reader and the WST-8 kit (Dojindo technologies) following the manufacturer's instructions and using the formula: % survival rate=(Sample-Background)/(Negative control-Background). Lapatinib (MSKCC pharmacy) was ground using a mortar and pestle and suspended in DMSO as previously described. To determine statistical significance, the results were analyzed using one-way ANOVA using Prism 6.0.

U2OS osteosarcoma cells = experiment: Proliferation assay (WST-8), U2OS; type: cell-based, human
Description: as §1

[1] = tested on: HeLa cervical carcinoma cells; experiment: Proliferation assay (WST-8), HeLa; type: cell-based, human
Description: as §1

[2] = tested on: trastuzumab-sensitive breast carcinoma cell line SKBR3; experiment: Proliferation assay (WST-8), SKBR3; type: cell-based, human; settings: SKBR3, 72 hours, 10 μg/mL antibody; lapatinib positive control
Description: as §1
For cell proliferation assays, 5,000 tumor cells were plated using RPMI-1640 supplemented with 10% FBS in a 96 well plate for 36 hours before being treated with lapatinib or the antibodies at the specified concentrations. […] Lapatinib (Memorial Sloan Kettering Cancer Center pharmacy) was ground using a mortar and pestle and suspended in DMSO as previously described (Chen et al., 2012, Molecular cancer therapeutics 11:660-669). To determine statistical significance, the results were analyzed using one-way ANOVA using Prism 6.0.

[3] = tested on: HeLa cervical carcinoma cells; experiment: T cell cytotoxicity assays, HeLa; type: cell-based, human; settings: lapatinib pretreatment
Description: The ^51Cr release assay was performed with effector T cells cultured in vitro in the presence of anti-CD3 and anti-CD28 for about 14 days. All target tumor cells were harvested with 2 mM EDTA in PBS, labeled with ^51Cr (Amersham, Arlington Height, IL) at 100 μCi/106 cells at 37° C. for 1 h. 5000 target cells/well were mixed with 50,000 effector cells (E:T=10:1) and BsAb antibodies in 96-well polystyrene round-bottom plates (BD Biosciences) to a final volume of 250 μl/well. The plates were incubated at 37° C. for 4 h. The released ^51Cr in supernatant was counted in a γ-counter (Packed Instrument, Downers Grove, IL). Percentage of specific release was calculated using the formula: (experimental cpm−background cpm)/(total cpm−background cpm)×100%, where cpm represented counts per minute of ^51Cr released. […] EC50 was calculated using SigmaPlot software.

Row | Compound | effect of blocking on HER2-BsAb induced T cell cytotoxicity (HER2-positive cells) | tumor growth (HCC1954 xenografts) | sensitivity of cells in proliferation assay (SCCHN cell line PCI-30) | sensitivity of cells in proliferation assay (U2OS osteosarcoma cells) | sensitivity of cells in proliferation assay [1] | anti-proliferative effect [2] | effect of pretreatment on sensitivity to HER2-BsAb mediated cytotoxicity [3]
1 | OKT3: CD3 specific blocking mAb | prevented HER2-BsAb T cell mediated cytotoxicity |  |  |  |  |  | 
2 | huOKT3: humanized OKT3 CD3-specific antibody | blocked the ability of HER2-BsAb to induce T cell cytotoxicity | only modest effects |  |  |  |  | 
3 | CCOc1cc2ncc(C#N)c(Nc3ccc(OCc4ccccn4)c(Cl)c3)c2cc1NC(=O)/C=C/CN(C)C [neratinib] |  |  | resistant | minimal sensitivity | pan-resistant |  | 
4 | CS(=O)(=O)CCNCc1ccc(-c2ccc3ncnc(Nc4ccc(OCc5cccc(F)c5)c(Cl)c4)c3c2)o1 [lapatinib] |  |  | resistant | minimal sensitivity | pan-resistant | strongest inhibition of cell proliferation | increased sensitivity
5 | C#Cc1cccc(Nc2ncnc3cc(OCCOC)c(OCCOC)cc23)c1 [erlotinib] |  |  | resistant | minimal sensitivity | pan-resistant |  | 
